In ChEMBL document CHEMBL3217615, “Novel 3,5-bis(arylidiene)-4-piperidone based monocarbonyl analogs of curcumin: anticancer activity evaluation and mode of action study” (2014):

How the values were obtained:
Assay type in all cases: functional
MDA-MB-435 = assay: Growth inhibition of human MDA-MB-435 cells after 48 hrs by sulforhodamine B assay; conditions: MDA-MB-435, 48 h; for CC50: read-out: LC50 (the source's name)
[1] = Growth inhibition of human HCT15 cells assessed as cell growth at 10^-4 M after 48 hrs by sulforhodamine B assay; conditions: HCT-15, 48 h, read-out: Activity
[2] = Growth inhibition of human HCT15 cells assessed as cell growth at 10^-6 M after 48 hrs by sulforhodamine B assay; conditions: HCT-15, 48 h, read-out: Activity
MCF7 = assay: Growth inhibition of human MCF7 cells after 48 hrs by sulforhodamine B assay; conditions: MCF7, 48 h; for CC50: read-out: LC50 (the source's name)
[3] = Growth inhibition of human OVCAR8 cells assessed as cell growth at 10^-7 M after 48 hrs by sulforhodamine B assay; conditions: OVCAR-8, 48 h, read-out: Activity
NCI-H322M [4] = assay: Growth inhibition of human NCI-H322M cells assessed as cell growth at 10^-4 M after 48 hrs by sulforhodamine B assay; conditions: read-out: Activity
COLO 205 [5] = assay: Growth inhibition of human COLO205 cells assessed as cell growth at 10^-4 M after 48 hrs by sulforhodamine B assay; conditions: COLO 205, 48 h, read-out: Activity
NCI-H460 = assay: Growth inhibition of human NCI-H460 cells assessed as cell growth at 10^-4 M after 48 hrs by sulforhodamine B assay; conditions: NCI-H460, 48 h, read-out: Activity
SR = assay: Growth inhibition of human SR cells assessed as cell growth at 10^-8 M after 48 hrs by sulforhodamine B assay; conditions: for growth at 0.01 µM: read-out: Activity; for TGI: read-out: pTGI (converted)
[6] = Growth inhibition of human SF295 cells assessed as cell growth at 10^-7 M after 48 hrs by sulforhodamine B assay; conditions: SF-295, 48 h, read-out: Activity
SK-MEL-2 [7] = assay: Growth inhibition of human SK-MEL-2 cells assessed as cell growth at 10^-7 M after 48 hrs by sulforhodamine B assay; conditions: SK-MEL-2, 48 h, read-out: Activity
SW-620 = assay: Growth inhibition of human SW620 cells assessed as cell growth at 10^-7 M after 48 hrs by sulforhodamine B assay; conditions: SW-620, 48 h, read-out: Activity
[8] = Growth inhibition of human OVCAR4 cells assessed as cell growth at 10^-8 M after 48 hrs by sulforhodamine B assay; conditions: OVCAR-4, 48 h; for growth at 0.01 µM: read-out: Activity; for TGI: read-out: pTGI
CAKI-1 [9] = assay: Growth inhibition of human CAKI-1 cells assessed as cell growth at 10^-8 M after 48 hrs by sulforhodamine B assay; conditions: CAKI-1, 48 h; for growth at 0.01 µM: read-out: Activity; for CC50: read-out: pLC50 (the source's name) (converted); for TGI: read-out: pTGI (converted)
[10] = Growth inhibition of human OVCAR3 cells assessed as cell growth at 10^-4 M after 48 hrs by sulforhodamine B assay; conditions: OVCAR-3, 48 h, read-out: Activity
CAKI-1 [11] = assay: Growth inhibition of human CAKI-1 cells assessed as cell growth at 10^-6 M after 48 hrs by sulforhodamine B assay; conditions: CAKI-1, 48 h, read-out: Activity
SK-MEL-2 [12] = assay: Growth inhibition of human SK-MEL-2 cells after 48 hrs by sulforhodamine B assay; conditions: SK-MEL-2, 48 h; for CC50: read-out: LC50 (the source's name)
T47D = assay: Growth inhibition of human T47D cells assessed as cell growth at 10^-8 M after 48 hrs by sulforhodamine B assay; conditions: for growth at 0.01 µM: read-out: Activity; for CC50: read-out: pLC50 (the source's name) (converted); for TGI: read-out: pTGI (converted)
SF-268 = assay: Growth inhibition of human SF268 cells assessed as cell growth at 10^-8 M after 48 hrs by sulforhodamine B assay; conditions: SF-268, 48 h; for growth at 0.01 µM: read-out: Activity; for TGI: read-out: pTGI (converted)
ACHN = assay: Growth inhibition of human ACHN cells assessed as cell growth at 10^-6 M after 48 hrs by sulforhodamine B assay; conditions: read-out: Activity
HOP-62 = assay: Growth inhibition of human HOP62 cells assessed as cell growth at 10^-7 M after 48 hrs by sulforhodamine B assay; conditions: HOP-62, 48 h, read-out: Activity
NCI-H322M [13] = assay: Growth inhibition of human NCI-H322M cells assessed as cell growth at 10^-8 M after 48 hrs by sulforhodamine B assay; conditions: for growth at 0.01 µM: read-out: Activity; for TGI: read-out: pTGI (converted)
NCI-H322M [14] = assay: Growth inhibition of human NCI-H322M cells assessed as cell growth at 10^-7 M after 48 hrs by sulforhodamine B assay; conditions: read-out: Activity
SK-MEL-28 = assay: Growth inhibition of human SK-MEL-28 cells after 48 hrs by sulforhodamine B assay; conditions: SK-MEL-28, 48 h; for CC50: read-out: LC50 (the source's name)
[15] = Growth inhibition of human RXF393 cells after 48 hrs by sulforhodamine B assay; conditions: RXF 393, 48 h; for CC50: read-out: LC50 (the source's name)
[16] = Growth inhibition of human NCI-ADR-RES cells assessed as cell growth at 10^-4 M after 48 hrs by sulforhodamine B assay; conditions: read-out: Activity
SK-MEL-2 [17] = assay: Growth inhibition of human SK-MEL-2 cells assessed as cell growth at 10^-4 M after 48 hrs by sulforhodamine B assay; conditions: SK-MEL-2, 48 h, read-out: Activity
[18] = Growth inhibition of human LOXIMVI cells after 48 hrs by sulforhodamine B assay; conditions: LOX IMVI
COLO 205 [19] = assay: Induction of apoptosis in human COLO205 cells assessed as caspase 8 activation at 10 uM by FLICA
COLO 205 [20] = assay: Induction of apoptosis in human COLO205 cells assessed as caspase 3/7 activation at 10 uM by FLICA
[21] = Growth inhibition of human NCI-ADR-RES cells after 48 hrs by sulforhodamine B assay; conditions: for CC50: read-out: LC50 (the source's name)
SK-OV-3 = assay: Growth inhibition of human SKOV3 cells assessed as cell growth at 10^-8 M after 48 hrs by sulforhodamine B assay; conditions: SK-OV-3, 48 h; for growth at 0.01 µM: read-out: Activity; for TGI: read-out: pTGI (converted)
NCI-H322M [22] = assay: Growth inhibition of human NCI-H322M cells after 48 hrs by sulforhodamine B assay; conditions: for CC50: read-out: LC50 (the source's name)
MDA-MB-468 = assay: Growth inhibition of human MDA-MB-468 cells after 48 hrs by sulforhodamine B assay; conditions: MDA-MB-468, 48 h; for CC50: read-out: LC50 (the source's name)

Cc1ccc(S(=O)(=O)N2C/C(=C\c3cc(F)cc(F)c3)C(=O)/C(=C/c3cc(F)cc(F)c3)C2)cc1
GI50 (MDA-MB-435): 0.241 µM
TGI (MDA-MB-435): 0.685 µM
CC50 (MDA-MB-435): 3.63 µM
growth at 100 µM [1]: -65%
growth at 1 µM [2]: 5%
GI50 (MCF7): 0.175 µM
TGI (MCF7): 1.45 µM
CC50 (MCF7): 6.88 µM
growth at 0.1 µM [3]: 82%
growth at 100 µM (NCI-H322M [4]): -44%
growth at 100 µM (COLO 205 [5]): -95%
growth at 100 µM (NCI-H460): -72%
GI50 (SR): 0.0347 µM
LC50 (SR): > 100 µM
growth at 0.01 µM (SR): 93%
TGI (SR): 0.251 µM
growth at 0.1 µM [6]: 92%
growth at 0.1 µM (SK-MEL-2 [7]): 112%
growth at 0.1 µM (SW-620): 42%
GI50 [8]: 0.437 µM
LC50 [8]: 36.3 µM
growth at 0.01 µM [8]: 100%
TGI [8]: 5.25 µM
GI50 (CAKI-1 [9]): 0.363 µM
growth at 0.01 µM (CAKI-1 [9]): 94%
CC50 (CAKI-1 [9]): 61.7 µM
TGI (CAKI-1 [9]): 2.45 µM
growth at 100 µM [10]: -98%
growth at 1 µM (CAKI-1 [11]): 16%
GI50 (SK-MEL-2 [12]): 1.97 µM
TGI (SK-MEL-2 [12]): 4.66 µM
CC50 (SK-MEL-2 [12]): 14.8 µM
GI50 (T47D): 1.78 µM
growth at 0.01 µM (T47D): 96%
CC50 (T47D): 53.7 µM
TGI (T47D): 6.03 µM
GI50 (SF-268): 0.427 µM
LC50 (SF-268): 14.5 µM
growth at 0.01 µM (SF-268): 98%
TGI (SF-268): 2.14 µM
growth at 1 µM (ACHN): -26%
growth at 0.1 µM (HOP-62): 110%
GI50 (NCI-H322M [13]): 4.68 µM
LC50 (NCI-H322M [13]): > 100 µM
growth at 0.01 µM (NCI-H322M [13]): 102%
TGI (NCI-H322M [13]): 22.9 µM
growth at 0.1 µM (NCI-H322M [14]): 103%
GI50 (SK-MEL-28): 0.473 µM
TGI (SK-MEL-28): 1.79 µM
CC50 (SK-MEL-28): 4.82 µM
GI50 [15]: 0.723 µM
TGI [15]: 2.14 µM
CC50 [15]: 5.13 µM
growth at 100 µM [16]: -57%
growth at 100 µM (SK-MEL-2 [17]): -77%
GI50 [18]: 0.175 µM
TGI [18]: 0.339 µM
CC50 ([18]; read-out: LC50 (the source's name)): 0.656 µM
Activity (COLO 205 [19]): 61%
Activity (COLO 205 [20]): 41.5%
GI50 [21]: 0.439 µM
TGI [21]: 10.1 µM
CC50 [21]: 76.7 µM
GI50 (SK-OV-3): 1.82 µM
LC50 (SK-OV-3): 37.2 µM
growth at 0.01 µM (SK-OV-3): 103%
TGI (SK-OV-3): 5.62 µM
GI50 (NCI-H322M [22]): 4.7 µM
TGI (NCI-H322M [22]): 22.8 µM
CC50 (NCI-H322M [22]): > 100 µM
GI50 (MDA-MB-468): 0.349 µM
TGI (MDA-MB-468): 1.71 µM
CC50 (MDA-MB-468): 5.77 µM

O=C1/C(=C/c2ccc(Cl)cc2Cl)CN(S(=O)(=O)c2ccccc2)C/C1=C\c1ccc(Cl)cc1Cl
GI50 (MDA-MB-435): 0.985 µM
TGI (MDA-MB-435): 3.21 µM
CC50 (MDA-MB-435): > 100 µM
growth at 100 µM [1]: -36%
growth at 1 µM [2]: -12%
GI50 (MCF7): 0.305 µM
TGI (MCF7): 100 µM
CC50 (MCF7): > 100 µM
growth at 0.1 µM [3]: 94%
growth at 100 µM (NCI-H322M [4]): -11%
growth at 100 µM (COLO 205 [5]): -25%
growth at 100 µM (NCI-H460): -61%
GI50 (SR): 0.186 µM
LC50 (SR): > 100 µM
growth at 0.01 µM (SR): 93%
TGI (SR): 0.871 µM
growth at 0.1 µM [6]: 93%
growth at 0.1 µM (SK-MEL-2 [7]): 111%
growth at 0.1 µM (SW-620): 96%
GI50 [8]: 0.282 µM
LC50 [8]: > 100 µM
growth at 0.01 µM [8]: 102%
TGI [8]: > 100 µM
GI50 (CAKI-1 [9]): 1.82 µM
growth at 0.01 µM (CAKI-1 [9]): 89%
CC50 (CAKI-1 [9]): > 100 µM
TGI (CAKI-1 [9]): 5.75 µM
growth at 100 µM [10]: -65%
growth at 1 µM (CAKI-1 [11]): 77%
GI50 (SK-MEL-2 [12]): 6.01 µM
TGI (SK-MEL-2 [12]): > 100 µM
CC50 (SK-MEL-2 [12]): > 100 µM
GI50 (T47D): 1.26 µM
growth at 0.01 µM (T47D): 99%
CC50 (T47D): > 100 µM
TGI (T47D): 100 µM
GI50 (SF-268): 0.447 µM
LC50 (SF-268): > 100 µM
growth at 0.01 µM (SF-268): 99%
TGI (SF-268): > 100 µM
growth at 1 µM (ACHN): 47%
growth at 0.1 µM (HOP-62): 113%
GI50 (NCI-H322M [13]): 0.676 µM
LC50 (NCI-H322M [13]): > 100 µM
growth at 0.01 µM (NCI-H322M [13]): 107%
TGI (NCI-H322M [13]): 3.55 µM
growth at 0.1 µM (NCI-H322M [14]): 123%
GI50 (SK-MEL-28): 4.44 µM
TGI (SK-MEL-28): > 100 µM
CC50 (SK-MEL-28): > 100 µM
GI50 [15]: 1.06 µM
TGI [15]: 2.42 µM
CC50 [15]: 5.54 µM
growth at 100 µM [16]: 21%
growth at 100 µM (SK-MEL-2 [17]): 6%
GI50 [18]: 0.203 µM
TGI [18]: 0.508 µM
Activity (COLO 205 [19]): 23%
Activity (COLO 205 [20]): 35.5%
GI50 [21]: 1.37 µM
TGI [21]: > 100 µM
CC50 [21]: > 100 µM
GI50 (SK-OV-3): 7.94 µM
LC50 (SK-OV-3): > 100 µM
growth at 0.01 µM (SK-OV-3): 109%
TGI (SK-OV-3): > 100 µM
GI50 (NCI-H322M [22]): 0.68 µM
TGI (NCI-H322M [22]): 3.56 µM
CC50 (NCI-H322M [22]): > 100 µM
GI50 (MDA-MB-468): 1.13 µM
TGI (MDA-MB-468): 3.89 µM
CC50 (MDA-MB-468): > 100 µM
